Data on 23 compounds can be found in US9315475B2 (MERCK SHARP & DOHME CORP., priority 2011, dated 2016).

The first assay relates to HIV-1 (H9IIIB strain). Description: Antiviral acute infection assay in cell culture (Spread). Type of assay: cell-based. Particulars: HIV-1 H9IIIB infection of MT-4 human T-lymphoid cells in 10% FBS; mean of at least two independent experiments. An excerpt:
Antiviral Assays in Cell Culture (“Spread”)
Acute Infection Assay (“Spread”) data were generated using HIV-1 (H9IIIB strain) infection of MT-4 human T-lymphoid cells in 10% FBS, and according to the methods disclosed by J. P. Vacca et al, “L-735,524: An orally bioavailable human immunodeficiency virus type 1 protease inhibitor,” Proc. Natl. Acad. Sci. USA, Vol. 91, pp. 4096-4100 (April 1994).
Broadly, the EC50 is the concentration that produces a half-maximal response. Read a low EC50 as a more potent agent. In turn, `O=C(C[C@@H](c1ccc(F)cc1)c1ccc(OC(F)(F)F)cc1)Nc1cccc(F)c1CC[C@@H]1CN[C@H](COC(=O)NCC(F)(F)F)CO1` [Example 159, [(3S,6R)-6-{2-[2-fluoro-6-({(3R)-3-(4-fluorophenyl)-3-[4-(trifluoro-methoxy)phenyl]propanoyl}amino)phenyl]ethyl}morpholin-3-yl] methyl (2,2,2-trifluoroethyl)carbamate] returned an EC50 of 380 nM.

The assay is the same for the next values; noted with them: Human immunodeficiency virus 1, T-lymphoid, HIV-1 H9IIIB infection of MT-4 human T-lymphoid cells in 10% FBS; mean of at least two independent experiments.
The compound `NC(=O)OC[C@@H]1CO[C@H](CCc2c(F)cccc2NC(=O)CC(c2ccccc2)c2ccccc2)CN1` [Example 152, [(3S,6R)-6-(2-{2-[(3,3-diphenylpropanoyl)amino]-6-fluorophenyl}ethyl)morpholin-3-yl] methyl carbamate] returned an EC50 of 88 nM.

For `O=C(C[C@@H](c1ccc(F)cc1)c1cccc(F)c1F)Nc1cccc(F)c1CC[C@@H]1CN[C@H](COC(=O)NCC(F)(F)F)CO1` [Example 153, {(3S,6R)-6-[2-(2-{[(3S)-3-(2,3-difluorophenyl)-3-(4-fluorophenyl)propanoyl]amino}-6-fluoro-phenyl)ethyl]morpholin-3-yl}methyl (2,2,2-trifluoroethyl)carbamate], the concentration for a half-maximal effect (EC50) was 130 nM.

For the compound `O=C(C[C@@H](c1ccc(F)cc1)c1ccccc1F)Nc1cncc(F)c1CC[C@@H]1CN[C@H](COC(=O)NCC(F)(F)F)CO1` [Example 158, {(3S,6R)-6-[2-(3-fluoro-5-{[(3S)-3-(2-fluorophenyl)-3-(4-fluorophenyl)propanoyl]amino}pyridin-4-yl)ethyl]morpholin-3-yl]methyl (2,2,2-trifluoroethyl)carbamate], the EC50 is 34 nM.

The compound `N#Cc1cccc([C@@H](CC(=O)Nc2cccc(F)c2CC[C@@H]2CN[C@H](COC(=O)NCC(F)(F)F)CO2)c2ccc(F)cc2)c1` [Example 160, {(3S,6R)-6-[2-(2-{[(3S)-3-(3-cyanophenyl)-3-(4-fluorophenyl)propanoyl]amino}-6-fluoro-phenyl)ethyl]morpholin-3-yl}methyl (2,2,2-trifluoroethyl)carbamate] gave a concentration giving a half-maximal response (EC50) of 31 nM.

The compound `O=C(CC(c1ccc(F)cc1)c1ccc(F)cc1)Nc1cncc(F)c1CC[C@@H]1CN[C@H](COC(=O)NCCNc2ccccc2)CO1` [Example 168, {(3S,6R)-6-[2-(3-{[3,3-bis(4-fluorophenyl)propanoyl]amino}-5-fluoropyridin-4-yl)ethyl]morpholin-3-yl}methyl [2-(phenyl-amino)ethyl]carbamate] showed an EC50 of 13 nM.

As for `O=C(CC(c1ccc(F)cc1)c1ccc(F)cc1)Nc1cncc(F)c1CC[C@@H]1CN[C@H](COC(=O)NCC2CCCO2)CO1` (stereo partly drawn) [Example 169, {(3S,6R)-6-[2-(3-{[3,3-bis(4-fluoro-phenyl)propanoyl]amino}-5-fluoropyridin-4-yl)ethyl]morpholin-3-yl}methyl (tetrahydrofuran-2-ylmethyl)carbamate], it took 73 nM to reach a half-maximal effect (EC50).

In turn, `O=C(CC(c1ccc(F)cc1)c1ccc(F)cc1)Nc1cncc(F)c1CC[C@@H]1CN[C@H](COC(=O)NCCOc2ccccc2)CO1` [Example 170, {(3S,6R)-6-[2-(3-{[3,3-bis(4-fluoro-phenyl)propanoyl]amino}-5-fluoropyridin-4-yl)ethyl]morpholin-3-yl}methyl (2-phenoxyethyl)carbamate] showed an EC50 of 61 nM.

On to `CC(NC(=O)OC[C@@H]1CO[C@H](CCc2c(F)cncc2NC(=O)CC(c2ccc(F)cc2)c2ccc(F)cc2)CN1)C1CCCO1` (stereo partly drawn) [Example 171, {(3S,6R)-6-[2-(3-{[3,3-bis(4-fluoro-phenyl)propanoyl]amino}-5-fluoropyridin-4-yl)ethyl]morpholin-3-yl}methyl [1-(tetrahydrofuran-2-yl)ethyl]carbamate], for which the concentration giving a half-maximal response (EC50) amounted to 68 nM.

`Cc1cc(C)n(CCNC(=O)OC[C@@H]2CO[C@H](CCc3c(F)cncc3NC(=O)CC(c3ccc(F)cc3)c3ccc(F)cc3)CN2)n1` [Example 172, {(3S,6R)-6-[2-(3-{[3,3-bis(4-fluoro-phenyl)propanoyl]amino}-5-fluoropyridin-4-yl)ethyl]morpholin-3-yl}methyl [2-(3,5-dimethyl-1H-pyrazol-1-yl)ethyl]carbamate] registered an EC50 of 60 nM.

The compound `O=C(CC(c1ccc(F)cc1)c1ccc(F)cc1)Nc1cncc(F)c1CC[C@@H]1CN[C@H](COC(=O)NC2CCOC2)CO1` (stereo partly drawn) [Example 173, {(3S,6R)-6-[2-(3-{[3,3-bis(4-fluoro-phenyl)propanoyl]amino}-5-fluoropyridin-4-yl)ethyl]morpholin-3-yl}methyl tetrahydrofuran-3-ylcarbamate] displayed a concentration giving a half-maximal response (EC50) of 37 nM.

For the compound `CCc1nc(CNC(=O)OC[C@@H]2CO[C@H](CCc3c(F)cncc3NC(=O)CC(c3ccc(F)cc3)c3ccc(F)cc3)CN2)no1` [Example 174, {(3S,6R)-6-[2-(3-{[3,3-bis(4-fluoro-phenyl)propanoyl]amino}-5-fluoropyridin-4-yl)ethyl]morpholin-3-yl}methyl [(5-ethyl-1,2,4-oxadiazol-3-yl)methyl]carbamate], the EC50 amounted to 120 nM.

In turn, `O=C(CC(c1ccc(F)cc1)c1ccc(F)cc1)Nc1cncc(F)c1CC[C@@H]1CN[C@H](COC(=O)NC(CO)C2CC2)CO1` (stereo partly drawn) [Example 175, {(3S,6R)-6-[2-(3-{[3,3-bis(4-fluoro-phenyl)propanoyl]amino}-5-fluoropyridin-4-yl)ethyl]morpholin-3-yl}methyl (1-cyclopropyl-2-hydroxyethyl)carbamate] displayed an EC50 of 39 nM.

Compound `O=C(CC(c1ccc(F)cc1)c1ccc(F)cc1)Nc1cncc(F)c1CC[C@@H]1CN[C@H](COC(=O)NCc2ccc(F)cc2)CO1` [Example 176, {(3S,6R)-6-[2-(3-{[3,3-bis(4-fluoro-phenyl)propanoyl]amino}-5-fluoropyridin-4-yl)ethyl]morpholin-3-yl}methyl (4-fluorobenzyl)carbamate] came in with a 50% effective concentration (EC50) of 73 nM.

The compound `CNC(=O)OC[C@@H]1CO[C@H](CCc2c(F)cncc2NC(=O)CC(c2ccc(F)cc2)c2ccc(F)cc2)CN1` [Example 177, {(3S,6R)-6-[2-(3-{[3,3-bis(4-fluoro-phenyl)propanoyl]amino}-5-fluoropyridin-4-yl)ethyl]morpholin-3-yl}methyl methylcarbamate] came in with an EC50 of 41 nM.

Regarding `N#Cc1ncccc1[C@@H](CC(=O)Nc1cccc(F)c1CC[C@@H]1CN[C@H](COC(=O)NCC(F)(F)F)CO1)c1ccc(F)cc1` [Example 178, {(3S,6R)-6-[2-(2-{[(3S)-3-(2-cyanopyridin-3-yl)-3-(4-fluorophenyl)propanoyl]amino}-6-fluoro-phenyl)ethyl]morpholin-3-yl}methyl (2,2,2-trifluoroethyl)carbamate], the EC50 was determined as 85 nM.

For `COc1ccc([C@H](CC(=O)Nc2cncc(F)c2CC[C@@H]2CN[C@H](COC(=O)NCC(F)(F)F)CO2)c2ccccc2)cc1Cl` [Example 179, {(3S,6R)-6-[2-(3-{[(3R)-3-(3-chloro-4-methoxyphenyl)-3-phenylpropanoyl]amino}-5-fluoropyridin-4-yl)ethyl]morpholin-3-yl}methyl (2,2,2-trifluoroethyl)carbamate], a half-maximal response (EC50) required 240 nM.

Turning to `O=C(C[C@@H](c1ccc(F)cc1)c1ccccc1C(F)(F)F)Nc1cncc(F)c1CC[C@@H]1CN[C@H](COC(=O)NCC(F)(F)F)CO1` [Example 180, [(3S,6R)-6-{2-[3-fluoro-5-({(3S)-3-(4-fluorophenyl)-3-[2-(trifluoro-methyl)phenyl]propanoyl}amino)pyridin-4-yl]ethyl}morpholin-3-yl]methyl (2,2,2-trifluoroethyl)carbamate], it took 310 nM to reach a half-maximal effect (EC50).

In turn, `COCCOc1ccc([C@@H](CC(=O)Nc2cncc(F)c2CC[C@@H]2CN[C@H](COC(=O)NCC(F)(F)F)CO2)c2ccc(F)cc2)cc1` [Example 181, [(3S,6R)-6-{2-[3-fluoro-5-({(3R)-3-(4-fluorophenyl)-3-[4-(2-methoxy-ethoxy)phenyl]propanoyl}amino)pyridin-4-yl]ethyl}morpholin-3-yl]methyl (2,2,2-trifluoroethyl)carbamate] registered an EC50 of 50 nM.

The compound `O=C(C[C@H](c1ccc(F)cc1)c1ccc(Cl)c(F)c1)Nc1cncc(F)c1CC[C@@H]1CN[C@H](COC(=O)NCC(F)(F)F)CO1` [Example 182, {(3S,6R)-6-[2-(3-{[(3R)-3-(4-chloro-3-fluorophenyl)-3-(4-fluoro-phenyl)propanoyl]amino}-5-fluoropyridin-4-yl)ethyl]morpholin-3-yl}methyl (2,2,2-trifluoroethyl)carbamate] came in with an EC50 of 17 nM.

For `O=C(C[C@@H](c1ccc(F)cc1)c1ccsc1)Nc1cccc(F)c1CC[C@@H]1CN[C@H](COC(=O)NCC(F)(F)F)CO1` [Example 183, {(3S,6R)-6-[2-(2-fluoro-6-{[(3S)-3-(4-fluorophenyl)-3-thiophen-3-ylpropanoyl]amino}phenyl)ethyl]morpholin-3-yl}methyl (2,2,2-trifluoroethyl)carbamate], the EC50 was found to be 690 nM.

`O=C(C[C@@H](c1ccc(F)cc1)c1cncc(C(F)(F)F)c1)Nc1cncc(F)c1CC[C@@H]1CN[C@H](COC(=O)NCC(F)(F)F)CO1` [Example 184, [(3S,6R)-6-{2-[3-fluoro-5-({(3S)-3-(4-fluorophenyl)-3-[5-(trifluoromethyl)pyridin-3-yl]propanoyl}amino)pyridin-4-yl]ethyl}morpholin-3-yl]methyl (2,2,2-trifluoroethyl)carbamate] gave an EC50 of 15 nM.

For `O=C(CC(c1ccc(F)cc1)c1ccc(F)cc1)Nc1cncc(F)c1CC[C@@H]1CN[C@H](COC(=O)NC2c3ccccc3C[C@H]2O)CO1` (stereo partly drawn) [Example 185, {(3S,6R)-6-[2-(3-{[3,3-bis(4-fluoro-phenyl)propanoyl]amino}-5-fluoropyridin-4-yl)ethyl]morpholin-3-yl}methyl [(2R)-2-hydroxy-2,3-dihydro-1H-inden-1-yl]carbamate], the EC50 is 68 nM.
